Test [1] deals with Frizzled-1 (Rattus norvegicus) (UniProt Q08463). The experiment in a line: Agonist activity at rat frizzled-1 expressed in human HEK293superTOP flash cells by luciferase reporter gene assay. The format is cell-based. The settings on record: HEK293. For orientation: A reporter such as luciferase makes a cellular process visible.
Test [2] addresses Frizzled-2 (Rattus norvegicus) (UniProt Q08464). The experiment in a line: Agonist activity at rat frizzled-2 expressed in human HEK293superTOP flash cells by luciferase reporter gene assay. Format: cell-based. To be noted: HEK293.
Test [3] has as its target Frizzled-1 (Rattus norvegicus) (UniProt Q08463). The test can be described thus: Agonist activity at rat frizzled-1 expressed in CHO cells by luciferase reporter gene assay. Format: cell-based.
Test [4] has as its target Frizzled-2 (Rattus norvegicus) (UniProt Q08464). The test can be described thus: Agonist activity at rat frizzled-2 expressed in CHO cells by luciferase reporter gene assay. Format: cell-based.
Test [5] addresses Frizzled-1 (Rattus norvegicus) (UniProt Q08463). The experiment in a line: Agonist activity at rat frizzled-1 expressed in African green monkey COS7 cells by luciferase reporter gene assay. Format: cell-based.
The target in test [6] is Frizzled-2 (Rattus norvegicus) (UniProt Q08464). The test can be described thus: Agonist activity at rat frizzled-2 expressed in African green monkey COS7 cells by luciferase reporter gene assay. Format: cell-based.
The target in test [7] is T1, Frizzled-2 (Homo sapiens, UniProt Q14332). The test can be described thus: Antagonist activity at Wnt3a-stimulated frizzled-2 (unknown origin) expressed in human HEK293superTOP flash cells incubated for 24 hrs by luciferase reporter gene assay. Format: functional, cell-based. The settings on record: HEK293.
Target sequence in this assay (Q14332 24-565 limits assumed): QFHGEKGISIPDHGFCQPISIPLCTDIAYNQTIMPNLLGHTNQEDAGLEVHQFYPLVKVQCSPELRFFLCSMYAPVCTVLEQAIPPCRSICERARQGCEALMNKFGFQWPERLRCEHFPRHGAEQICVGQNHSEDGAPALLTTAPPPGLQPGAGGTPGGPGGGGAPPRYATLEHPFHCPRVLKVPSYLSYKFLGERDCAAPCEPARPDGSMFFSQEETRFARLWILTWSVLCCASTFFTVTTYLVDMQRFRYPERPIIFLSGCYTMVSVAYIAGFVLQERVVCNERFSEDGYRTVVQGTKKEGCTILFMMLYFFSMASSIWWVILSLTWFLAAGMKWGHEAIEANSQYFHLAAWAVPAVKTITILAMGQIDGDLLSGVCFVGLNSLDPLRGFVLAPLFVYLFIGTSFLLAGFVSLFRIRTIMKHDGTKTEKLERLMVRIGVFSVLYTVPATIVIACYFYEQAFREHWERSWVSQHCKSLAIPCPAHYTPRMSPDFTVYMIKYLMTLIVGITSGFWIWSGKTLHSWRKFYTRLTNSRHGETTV
Test [8] has as its target Frizzled-1 (Homo sapiens) (UniProt Q9UP38). The test can be described thus: Antagonist activity at Wnt3a-stimulated frizzled-1 (unknown origin) expressed in human HEK293superTOP flash cells incubated for 24 hrs by luciferase reporter gene assay. The format is functional, cell-based. The settings on record: HEK293.
Test [9] concerns the target T1, Frizzled-2. The test can be described thus: Agonist activity at frizzled-2 (unknown origin) expressed in human HEK293superTOP flash cells by luciferase reporter gene assay. The format is functional, cell-based. The settings on record: hek293.
Target sequence in this assay (Q14332 whole entry): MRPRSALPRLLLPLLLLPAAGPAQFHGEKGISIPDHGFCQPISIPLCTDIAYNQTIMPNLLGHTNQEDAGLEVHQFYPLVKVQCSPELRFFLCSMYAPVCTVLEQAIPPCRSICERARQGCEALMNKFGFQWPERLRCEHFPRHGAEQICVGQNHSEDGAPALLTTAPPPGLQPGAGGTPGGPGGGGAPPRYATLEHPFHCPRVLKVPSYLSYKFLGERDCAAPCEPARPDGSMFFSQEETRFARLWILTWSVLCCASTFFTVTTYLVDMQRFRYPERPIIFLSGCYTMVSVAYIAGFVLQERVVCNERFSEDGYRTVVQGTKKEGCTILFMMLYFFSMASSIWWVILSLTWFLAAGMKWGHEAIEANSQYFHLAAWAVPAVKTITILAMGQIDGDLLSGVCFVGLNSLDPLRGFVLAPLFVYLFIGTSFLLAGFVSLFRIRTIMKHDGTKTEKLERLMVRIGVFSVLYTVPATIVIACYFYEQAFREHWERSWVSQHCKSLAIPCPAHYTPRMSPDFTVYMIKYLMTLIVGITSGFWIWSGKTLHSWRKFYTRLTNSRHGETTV
Test [10] addresses Frizzled-1 (Homo sapiens) (UniProt Q9UP38). The test can be described thus: Agonist activity at frizzled-1 (unknown origin) expressed in human HEK293superTOP flash cells by luciferase reporter gene assay. The format is functional, cell-based. To be noted: HEK293.
The target of test [11] is T2, Frizzled-4 (Homo sapiens) (UniProt Q9ULV1).
T2 sequence (whole entry): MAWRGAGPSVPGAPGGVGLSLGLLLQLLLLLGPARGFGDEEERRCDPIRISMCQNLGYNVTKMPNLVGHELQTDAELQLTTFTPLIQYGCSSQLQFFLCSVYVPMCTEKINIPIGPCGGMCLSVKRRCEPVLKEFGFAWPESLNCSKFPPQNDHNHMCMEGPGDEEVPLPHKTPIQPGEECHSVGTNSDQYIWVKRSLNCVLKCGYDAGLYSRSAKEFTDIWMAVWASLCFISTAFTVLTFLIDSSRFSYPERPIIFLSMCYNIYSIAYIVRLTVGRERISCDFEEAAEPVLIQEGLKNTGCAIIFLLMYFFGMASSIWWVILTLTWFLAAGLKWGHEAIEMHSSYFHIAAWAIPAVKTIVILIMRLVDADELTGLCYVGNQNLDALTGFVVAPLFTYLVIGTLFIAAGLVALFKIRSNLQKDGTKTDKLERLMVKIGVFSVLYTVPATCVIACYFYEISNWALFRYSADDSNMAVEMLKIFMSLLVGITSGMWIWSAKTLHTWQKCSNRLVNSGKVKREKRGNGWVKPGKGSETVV
The experiment in a line: Agonist activity at frizzled-4 (unknown origin) expressed in human HEK293superTOP flash cells by luciferase reporter gene assay. The format is functional, cell-based. The settings on record: HEK293.

For test [12], the target named is Frizzled-5 (Homo sapiens) (UniProt Q13467). The experiment in a line: Agonist activity at frizzled-5 (unknown origin) expressed in human HEK293superTOP flash cells by luciferase reporter gene assay. To be noted: HEK293. Format: functional, cell-based.

Activity calls are given as the source filed them. The rule behind the calls is not given here. Positions of bridges follow the written chain, without caps; N, C: chain ends. Residues, ends and D or L forms follow the SMILES beside them.

Sequence of Frizzled-2 (Rattus norvegicus) (Q08464 29-570 limits assumed): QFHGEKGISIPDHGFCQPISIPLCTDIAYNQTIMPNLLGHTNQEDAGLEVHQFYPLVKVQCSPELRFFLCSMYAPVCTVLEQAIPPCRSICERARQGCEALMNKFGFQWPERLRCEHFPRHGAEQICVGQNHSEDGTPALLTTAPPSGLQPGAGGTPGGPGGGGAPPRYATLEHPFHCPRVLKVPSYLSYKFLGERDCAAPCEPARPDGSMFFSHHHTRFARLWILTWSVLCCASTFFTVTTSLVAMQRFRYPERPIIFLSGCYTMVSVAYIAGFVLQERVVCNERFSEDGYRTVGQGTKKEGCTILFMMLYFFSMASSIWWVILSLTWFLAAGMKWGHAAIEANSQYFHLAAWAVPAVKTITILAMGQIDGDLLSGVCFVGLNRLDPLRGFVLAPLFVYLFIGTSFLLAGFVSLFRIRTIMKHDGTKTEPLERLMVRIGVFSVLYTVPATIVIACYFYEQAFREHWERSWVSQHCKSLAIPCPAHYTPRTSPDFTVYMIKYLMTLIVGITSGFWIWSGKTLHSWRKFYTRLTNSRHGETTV
Sequence of Frizzled-1 (Homo sapiens) (Q9UP38 70-647 limits assumed): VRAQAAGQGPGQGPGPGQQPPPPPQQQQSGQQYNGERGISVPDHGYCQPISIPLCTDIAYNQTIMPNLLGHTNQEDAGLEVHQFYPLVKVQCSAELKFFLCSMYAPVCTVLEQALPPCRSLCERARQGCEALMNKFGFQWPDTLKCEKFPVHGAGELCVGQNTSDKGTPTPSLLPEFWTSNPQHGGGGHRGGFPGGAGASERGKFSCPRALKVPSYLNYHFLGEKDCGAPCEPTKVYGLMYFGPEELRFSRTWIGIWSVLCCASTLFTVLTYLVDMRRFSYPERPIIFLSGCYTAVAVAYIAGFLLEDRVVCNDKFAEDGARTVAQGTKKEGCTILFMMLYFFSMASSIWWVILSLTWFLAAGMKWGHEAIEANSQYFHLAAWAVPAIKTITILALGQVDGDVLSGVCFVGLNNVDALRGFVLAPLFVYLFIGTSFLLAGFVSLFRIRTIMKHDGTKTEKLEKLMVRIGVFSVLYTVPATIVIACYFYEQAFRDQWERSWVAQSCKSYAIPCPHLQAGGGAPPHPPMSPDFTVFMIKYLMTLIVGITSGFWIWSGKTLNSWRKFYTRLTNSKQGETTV
Sequence of Frizzled-1 (Rattus norvegicus) (Q08463 whole entry): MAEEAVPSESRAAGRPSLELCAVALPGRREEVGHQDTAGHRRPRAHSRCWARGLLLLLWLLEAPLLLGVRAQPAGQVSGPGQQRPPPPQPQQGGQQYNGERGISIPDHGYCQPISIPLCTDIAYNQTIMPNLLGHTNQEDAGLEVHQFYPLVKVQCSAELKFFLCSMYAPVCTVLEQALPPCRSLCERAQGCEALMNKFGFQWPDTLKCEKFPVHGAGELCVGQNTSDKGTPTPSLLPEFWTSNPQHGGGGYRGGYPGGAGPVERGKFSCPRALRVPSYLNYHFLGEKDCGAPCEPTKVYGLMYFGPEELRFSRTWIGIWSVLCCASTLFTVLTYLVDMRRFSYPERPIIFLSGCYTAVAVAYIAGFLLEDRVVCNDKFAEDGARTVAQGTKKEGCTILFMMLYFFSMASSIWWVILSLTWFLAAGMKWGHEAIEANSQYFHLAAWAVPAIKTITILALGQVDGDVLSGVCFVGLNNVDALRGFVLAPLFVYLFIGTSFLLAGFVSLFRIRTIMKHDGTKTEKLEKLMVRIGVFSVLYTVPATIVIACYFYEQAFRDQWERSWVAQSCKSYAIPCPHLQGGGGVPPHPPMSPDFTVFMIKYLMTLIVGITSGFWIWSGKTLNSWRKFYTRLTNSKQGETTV
Sequence of Frizzled-5 (Homo sapiens) (Q13467 whole entry): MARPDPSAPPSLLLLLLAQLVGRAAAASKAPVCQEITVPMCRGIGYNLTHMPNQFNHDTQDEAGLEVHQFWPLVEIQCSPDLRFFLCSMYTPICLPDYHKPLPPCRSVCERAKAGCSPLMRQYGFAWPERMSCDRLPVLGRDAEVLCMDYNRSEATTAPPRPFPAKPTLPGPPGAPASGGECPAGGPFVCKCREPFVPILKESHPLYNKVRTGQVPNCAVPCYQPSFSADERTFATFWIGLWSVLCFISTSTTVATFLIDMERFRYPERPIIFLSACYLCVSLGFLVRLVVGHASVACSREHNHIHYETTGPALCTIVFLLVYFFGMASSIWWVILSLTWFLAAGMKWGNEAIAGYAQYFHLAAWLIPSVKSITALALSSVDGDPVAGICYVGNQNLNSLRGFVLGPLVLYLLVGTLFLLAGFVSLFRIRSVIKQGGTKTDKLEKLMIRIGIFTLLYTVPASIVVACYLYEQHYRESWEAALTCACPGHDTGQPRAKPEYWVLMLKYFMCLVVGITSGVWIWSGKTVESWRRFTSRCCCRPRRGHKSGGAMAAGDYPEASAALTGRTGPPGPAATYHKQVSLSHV

For the molecule `CC(=O)NCC(=O)N[C@@H](CO)C(=O)N[C@@H](CS)C(=O)N[C@@H](CO)C(=O)N[C@@H](CC(C)C)C(=O)N[C@@H](CCCCN)C(=O)N[C@H](C(=O)N[C@@H](CS)C(=O)N[C@@H](Cc1c[nH]c2ccccc12)C(=O)N[C@@H](CC(C)C)C(=O)N[C@@H](CCC(N)=O)C(=O)N[C@@H](CC(C)C)C(=O)N[C@@H](C)C(=O)N[C@@H](CC(=O)O)C(N)=O)[C@@H](C)O` (Ac-GSCSLKTCWLQLAD-NH2), the result in [1], in [2], in [3], in test [4], in test [5] and in test [6] was inactive.

With `CC(=O)N[C@@H](CS)C(=O)N[C@@H](CCCCN)C(=O)N[C@@H](CS)C(=O)N[C@@H](Cc1cnc[nH]1)C(=O)NCC(=O)N[C@H](C(=O)N[C@@H](CO)C(=O)NCC(=O)N[C@@H](CO)C(=O)N[C@@H](CS)C(=O)N[C@H](C(=O)N[C@H](C(=O)N[C@@H](CCCCN)C(=O)N[C@H](C(=O)N[C@@H](CS)C(=O)N[C@@H](Cc1c[nH]c2ccccc12)C(N)=O)[C@@H](C)O)C(C)C)[C@@H](C)O)C(C)C` (Ac-CKCHGVSGSCTVKTCW-NH2), the inhibition entry (on Frizzled-2 [7]; in test [8]) was “inactive” each time. Besides, the EC50 result at Frizzled-2 [9] is “Not Active”. Also, the outcome in [10] was inactive.

Consider `CSCC[C@H](NC(=O)CNC(=O)[C@H](CO)NC(=O)[C@H](CCCCN)NC(=O)[C@H](CC(N)=O)NC(=O)[C@H](CS)NC(C)=O)C(=O)N[C@@H](CC(=O)O)C(=O)NCC(=O)N[C@@H](CS)C(=O)N[C@@H](CCC(=O)O)C(=O)N[C@@H](CC(C)C)C(N)=O` (Ac-CNKSGMDGCEL-NH2), for which the inhibition result (at Frizzled-2 [7]; in test [8]) was “inactive” throughout. For the same molecule, the EC50 entry on Frizzled-2 [9] is given as “Not Active”. Also, in test [10], the outcome was inactive.

As to `CSCC[C@@H]1NC(=O)CNC(=O)[C@H](CCC(=O)O)NC(=O)[C@H](CO)NC(=O)[C@H]([C@@H](C)O)NC(=O)[C@H](CCCCN)NC(=O)[C@H](CC(N)=O)NC(=O)[C@@H](NC(C)=O)CSSC[C@@H](C(=O)N[C@@H](CCC(=O)O)C(=O)N[C@@H](CC(C)C)C(N)=O)NC(=O)CNC(=O)[C@H](CC(=O)O)NC1=O` (Ac-CNKTSEGMDGCEL-NH2; disulfide 1-11), the result in test [11] and in [12] was inactive.

On to `CC[C@H](C)[C@H](NC(=O)CNC(C)=O)C(=O)N[C@@H](CCCCN)C(=O)N[C@@H](CCC(=O)O)C(=O)N[C@@H](CS)C(=O)N[C@@H](CCC(N)=O)C(=O)N[C@@H](Cc1ccc(O)cc1)C(=O)N[C@@H](CCC(N)=O)C(=O)N[C@@H](Cc1ccccc1)C(=O)N[C@@H](CCCNC(=N)N)C(=O)N[C@@H](Cc1c[nH]cn1)C(=O)N[C@@H](CCCNC(=N)N)C(=O)N[C@@H](CCCNC(=N)N)C(=O)N[C@@H](Cc1c[nH]c2ccccc12)C(=O)N[C@@H](CC(N)=O)C(=O)N[C@@H](CS)C(=O)N[C@@H](CO)C(=O)N[C@H](C(=O)N[C@H](C(=O)N[C@@H](CC(=O)O)C(N)=O)C(C)C)[C@@H](C)O` (Ac-GIKECQYQFRHRRWNCSTVD-NH2), for which the result in [1], in test [2], in test [3], in test [4], in test [5] and in [6] was inactive.

For `CSCC[C@H](NC(C)=O)C(=O)N[C@@H](CC(N)=O)C(=O)N[C@@H](CCCNC(=N)N)C(=O)N[C@@H](Cc1cnc[nH]1)C(=O)N[C@@H](CC(N)=O)C(=O)N[C@@H](CC(N)=O)C(=O)N[C@@H](CCC(=O)O)C(=O)N[C@@H](C)C(=O)NCC(=O)N[C@@H](CCCNC(=N)N)C(N)=O` (Ac-MNRHNNEAGR-NH2), the inhibition result (on Frizzled-2 [7]; in [8]) was “inactive” throughout. Further, at Frizzled-2 [9], the EC50 entry is on record as “Not Active”. Besides, the result in test [10] was inactive.
